# Results: ChEMBL document CHEMBL1126359, “Synthesis and pharmacological activity of rationally designed inhibitors of the leukotriene A4 hydrolase enzyme” (Bioorg Med Chem Lett, 1992)
# Legend:
# [1] = target: T1, Leukotriene A-4 hydrolase (Homo sapiens) (UniProt P09960); assay: Inhibition of Leukotriene B4 by inhibiting the conversion of Leukotriene A4 by a purified Leukotriene A4 hydrolase; IE - ineffective
# T1 sequence (whole entry): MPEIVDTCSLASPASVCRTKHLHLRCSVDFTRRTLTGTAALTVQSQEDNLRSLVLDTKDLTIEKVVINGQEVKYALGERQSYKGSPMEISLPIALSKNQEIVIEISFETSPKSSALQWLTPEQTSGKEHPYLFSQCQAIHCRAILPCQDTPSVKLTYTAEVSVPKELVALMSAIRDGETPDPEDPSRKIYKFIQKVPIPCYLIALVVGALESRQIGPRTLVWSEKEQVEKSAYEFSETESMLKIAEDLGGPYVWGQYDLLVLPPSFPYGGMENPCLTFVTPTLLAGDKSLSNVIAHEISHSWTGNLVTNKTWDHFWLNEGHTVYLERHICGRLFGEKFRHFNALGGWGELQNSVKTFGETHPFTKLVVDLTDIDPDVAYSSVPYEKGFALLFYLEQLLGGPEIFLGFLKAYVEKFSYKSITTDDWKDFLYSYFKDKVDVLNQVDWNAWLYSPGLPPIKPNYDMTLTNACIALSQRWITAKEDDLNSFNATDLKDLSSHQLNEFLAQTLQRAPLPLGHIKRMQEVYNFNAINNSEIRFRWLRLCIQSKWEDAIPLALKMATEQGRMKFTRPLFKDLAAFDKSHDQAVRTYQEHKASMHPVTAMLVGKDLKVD
# HL-60 = assay: Inhibitory activity against calcium ionophore induced Leukotriene B4 biosynthesis by the promyelocytic leukemia cell line HL-60 at concentrations of 10e-6 M; A - good inhibitory activity; assay type: functional, cell-based; settings: Homo sapiens
SMILES,Activity [1],Activity (HL-60)
CCCCCCCC/C=C\C=C\C1=C[C@@H]2CC[C@@]1(CCCC(=O)O)O2,Ineffective,A
CCCCCCCCCC/C=C/C1=C[C@@H]2CC[C@@]1(CCCC(=O)O)O2,Ineffective,A
